For test [1], the target named is Recombinant human FGFR1 (Homo sapiens, UniProt P11362). Kind of test: Transcreener Kinase Assay of FGFR1. The class given is biochemical. The note with it: read-out: FGFR1 (FP) IC50.
For test [2], the target named is Recombinant human FGFR2 (Homo sapiens, UniProt P21802). The test can be described thus: Transcreener Kinase Assay of FGFR2. It is filed as biochemical. The note with it: read-out: FGFR2 (FP) IC50.
Test [3] deals with FGFR3 kinase (Homo sapiens, UniProt P22607). Kind of test: Z-Lyte Kinase Assay of FGFR3. It is filed as biochemical. In short, it runs like this: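 Kinase at 0.7 μg/ml with 4 μM Z-LYTE Tyr 4 peptide and ATP diluted to 300 uM (working solution, 1.33× buffer); compounds 1–0.00046 μM, 2% DMSO final. Kinase reaction and development each 1 h at RT (25-30[…]); coumarin (445 nm) and fluorescein (520 nm) emission read, inhibition from % phosphorylation.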
Chain of FGFR3 kinase (P22607 23-806): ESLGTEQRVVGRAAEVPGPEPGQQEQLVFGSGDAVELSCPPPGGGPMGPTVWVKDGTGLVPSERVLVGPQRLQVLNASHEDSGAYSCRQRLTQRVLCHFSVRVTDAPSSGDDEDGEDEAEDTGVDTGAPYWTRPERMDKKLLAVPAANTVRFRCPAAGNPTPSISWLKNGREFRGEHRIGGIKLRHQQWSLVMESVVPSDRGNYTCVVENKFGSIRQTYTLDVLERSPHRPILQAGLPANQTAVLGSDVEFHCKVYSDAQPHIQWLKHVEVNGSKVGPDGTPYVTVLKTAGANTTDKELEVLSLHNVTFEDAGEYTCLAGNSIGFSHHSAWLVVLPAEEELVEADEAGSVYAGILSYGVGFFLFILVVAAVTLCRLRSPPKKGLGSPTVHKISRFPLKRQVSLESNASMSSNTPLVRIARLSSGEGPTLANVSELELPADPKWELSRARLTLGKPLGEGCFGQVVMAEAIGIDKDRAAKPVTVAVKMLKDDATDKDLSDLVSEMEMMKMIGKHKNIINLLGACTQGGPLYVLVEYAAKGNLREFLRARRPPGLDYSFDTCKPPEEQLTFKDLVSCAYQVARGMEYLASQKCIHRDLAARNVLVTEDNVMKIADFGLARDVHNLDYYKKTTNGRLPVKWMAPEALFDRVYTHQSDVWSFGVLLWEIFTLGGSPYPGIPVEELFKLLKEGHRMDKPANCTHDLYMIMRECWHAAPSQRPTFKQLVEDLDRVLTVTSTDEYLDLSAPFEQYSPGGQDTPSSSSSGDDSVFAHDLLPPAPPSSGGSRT

Test [4] deals with KG-1. The test can be described thus: Cellular Proliferation Assay (Cell Counting Kit-8), KG-1. The class given is cell-based. The note with it: Homo sapiens, KG1 cells, 72 hours. The method, boiled down: (§1)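 Seeding was 30,000 (KG-1), 5,000 (SNU-16) or 1,000 (RT-112) cells per well, with compound added 24 h later. Dilutions were prepared as an 8-point series of 10 to 0.004 μM in 5% DMSO, before addition to wells.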

Test [5] deals with SNU-16. The test can be described thus: Cellular Proliferation Assay (Cell Counting Kit-8), SNU-16. The note with it: Homo sapiens, SNU-16 cells, 72 hours. The class given is cell-based. In short, it runs like this: as §1
Test [6] concerns RT-112. The test can be described thus: Cellular Proliferation Assay (Cell Counting Kit-8), RT-112. The class given is cell-based. The note with it: Homo sapiens, RT-112 cells, 72 hours. In short, it runs like this: as §1

We go through 10 compounds from patent publication US20160052926A1, “NOVEL PYRIMIDINE AND PYRIDINE COMPOUNDS AND USAGE THEREOF” (HUTCHISON MEDIPHARMA LIMITED, priority 2013, published 2016).

The term IC50 denotes the point on the concentration scale where inhibition reaches its midpoint.

Chain of Recombinant human FGFR2 (P21802 22-821): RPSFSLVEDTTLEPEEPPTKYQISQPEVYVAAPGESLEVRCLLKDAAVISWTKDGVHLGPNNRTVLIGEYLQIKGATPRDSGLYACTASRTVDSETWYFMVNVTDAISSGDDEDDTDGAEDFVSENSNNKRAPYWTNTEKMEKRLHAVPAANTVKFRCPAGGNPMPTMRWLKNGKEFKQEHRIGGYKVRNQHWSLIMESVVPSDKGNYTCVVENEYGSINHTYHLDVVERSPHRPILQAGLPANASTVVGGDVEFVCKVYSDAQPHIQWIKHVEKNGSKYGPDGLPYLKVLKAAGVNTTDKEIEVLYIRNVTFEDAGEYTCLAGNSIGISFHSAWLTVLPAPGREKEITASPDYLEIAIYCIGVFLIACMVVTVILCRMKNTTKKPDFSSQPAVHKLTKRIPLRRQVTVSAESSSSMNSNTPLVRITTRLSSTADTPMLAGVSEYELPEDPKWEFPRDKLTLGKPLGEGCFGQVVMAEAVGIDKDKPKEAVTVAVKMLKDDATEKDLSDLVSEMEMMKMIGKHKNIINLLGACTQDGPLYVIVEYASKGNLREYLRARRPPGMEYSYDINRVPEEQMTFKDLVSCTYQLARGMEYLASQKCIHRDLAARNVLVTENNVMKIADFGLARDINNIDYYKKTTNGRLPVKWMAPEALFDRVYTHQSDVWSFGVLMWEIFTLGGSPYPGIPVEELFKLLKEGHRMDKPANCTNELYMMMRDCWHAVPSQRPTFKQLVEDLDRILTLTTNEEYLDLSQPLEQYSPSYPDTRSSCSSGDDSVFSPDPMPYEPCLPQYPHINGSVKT
Chain of Recombinant human FGFR1 (P11362 22-822): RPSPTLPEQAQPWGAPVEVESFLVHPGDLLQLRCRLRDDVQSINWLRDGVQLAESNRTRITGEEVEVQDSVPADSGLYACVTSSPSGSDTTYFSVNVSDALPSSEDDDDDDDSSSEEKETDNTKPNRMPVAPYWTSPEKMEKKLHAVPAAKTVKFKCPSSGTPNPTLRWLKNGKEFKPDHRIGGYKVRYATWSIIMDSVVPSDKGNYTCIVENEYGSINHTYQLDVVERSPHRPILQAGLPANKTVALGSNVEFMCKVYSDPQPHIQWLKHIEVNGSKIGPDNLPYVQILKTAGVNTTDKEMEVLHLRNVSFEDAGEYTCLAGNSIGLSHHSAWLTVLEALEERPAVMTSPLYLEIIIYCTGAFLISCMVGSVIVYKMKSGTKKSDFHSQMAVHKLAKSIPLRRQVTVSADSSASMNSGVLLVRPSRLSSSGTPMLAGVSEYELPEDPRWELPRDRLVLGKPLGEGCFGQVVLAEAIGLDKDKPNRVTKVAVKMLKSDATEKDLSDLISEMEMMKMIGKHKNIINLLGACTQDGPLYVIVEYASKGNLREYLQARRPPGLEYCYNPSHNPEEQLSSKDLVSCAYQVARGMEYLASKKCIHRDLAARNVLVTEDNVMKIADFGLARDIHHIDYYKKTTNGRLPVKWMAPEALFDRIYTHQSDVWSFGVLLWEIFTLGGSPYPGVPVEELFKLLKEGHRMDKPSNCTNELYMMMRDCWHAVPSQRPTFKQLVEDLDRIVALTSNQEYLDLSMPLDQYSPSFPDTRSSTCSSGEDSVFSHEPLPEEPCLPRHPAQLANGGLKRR

For `CNC(=O)c1cc(CCc2cnc(Nc3cnn([C@@H]4CCCN(C)C4)c3)nc2)c(F)c(OC)c1` [Compound 165, (R)-4-fluoro-3-methoxy-N-methyl-5-(2-(2-(1-(1-methylpiperidin-3-yl)-1H-pyrazol-4-ylamino)pyrimidin-5-yl)ethyl)benzamide], the IC50 in test [1] is 11 nM; in test [2], 7 nM; in test [3], 7 nM; in test [4] it was 56 nM; in test [5], 23 nM; in test [6], 106 nM.
Consider `CNC(=O)c1cc(CCc2cnc(Nc3cnn([C@@H]4CCOC4)c3)nc2)c(F)c(OC)c1` [Compound 123], for which the IC50 in test [1] was determined as 9 nM; in test [2], 5 nM; in test [3], 13 nM; in test [4] it was 26 nM; in test [5], 18 nM; in test [6], 135 nM.
For the compound `CCN1CCN(c2ccc(Nc3ncc(CCc4cc(OC)cc(C(=O)NC)c4)cn3)cc2)CC1` [Compound 1, 3-(2-(2-((4-(4-ethylpiperazin-1-yl)phenyl)amino)pyrimidin-5-yl)ethyl)-5-methoxy-N-methylbenzamide], the IC50 in test [1] is 24 nM; in test [2], 19 nM; in test [3] it was 28 nM; in test [4], 49 nM; in test [5] it was 95 nM; in test [6], 612 nM.
Take `CCN1CCN(c2ccc(Nc3ncc(CCc4cc(C(=O)NOC)cc(OC)c4F)cn3)cc2)CC1` [Compound 55]: the concentration for half-maximal inhibition (IC50) in test [1] worked out at 2 nM; in test [2] it was 3 nM; in test [3], 2 nM; in test [4], 3 nM; in test [5] it was 4 nM; in test [6], 16 nM.
As to `CNC(=O)c1cc(CCc2cnc(Nc3ccc(CN4CCN(C)CC4)cc3)nc2)c(F)c(OC)c1` [Compound 99], the IC50 was found to be 14 nM in test [1]; 7 nM in test [2]; 12 nM in test [3]; 30 nM in test [4]; 17 nM in test [5]; 110 nM in test [6].
On to `CNC(=O)c1cc(CCc2cnc(Nc3cnn(C4CN(C)C4)c3)nc2)c(F)c(OC)c1` [Compound 166], for which the IC50 in test [1] amounted to 20 nM; in test [2], 13 nM; in test [3], 15 nM; in test [4] it was 69 nM; in test [5] it was 57 nM; in test [6] it was 592 nM.
With `CNC(=O)c1cc(COc2cnc(Nc3ccc(N4C[C@@H](C)N[C@@H](C)C4)cc3)nc2)c(Cl)c(OC)c1` [Compound 186, 4-chloro-3-(((2-((4-((3S,5R)-3,5-dimethylpiperazin-1-yl)phenyl)amino)pyrimidin-5-yl)oxy)methyl)-5-methoxy-N-methylbenzamide], the IC50 in test [1] is 5 nM; in test [2], 4 nM; in test [3], 5 nM; in test [4] it was 10 nM; in test [5], 7 nM; in test [6], 7 nM.
Consider `CNC(=O)c1cc(CCc2cnc(Nc3cnn(-c4ccc(C)nc4)c3)nc2)c(Cl)c(OC)c1` [Compound 152], for which the IC50 in test [1] is 19 nM; in test [2], 12 nM; in test [3], 38 nM; in test [4] it was 56 nM; in test [5], 29 nM; in test [6] it was 88 nM.
Consider `CNC(=O)c1cc(CCc2cnc(Nc3cnn(C4CC4)c3)nc2)c(Cl)c(OC)c1` [Compound 119], for which the IC50 in test [1] was found to be 11 nM; in test [2], 6 nM; in test [3], 19 nM; in test [4] it was 22 nM; in test [5] it was 27 nM; in test [6], 124 nM.
With `CNC(=O)c1cc(CCc2cnc(Nc3cnn(CC(=O)N4CCCC4)c3)nc2)c(F)c(OC)c1` [Compound 143], the IC50 in test [1] was determined as 41 nM; in test [2], 7 nM; in test [3], 203 nM; in test [4] it was 803 nM; in test [5], 100 nM; in test [6], 991 nM.
